Source: PubChem BioAssay (NCI)
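The compound was tested at five concentrations on cells cultured in 96-well plates, with a 48-hour exposure period. TGI is the concentration that stops growth completely.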

Experiments:
Experiment in all cases: inhibition of tumour cell growth, NCI panel, 48 h
OVCAR-3 ovarian = test system: OVCAR-3 ovarian
DLD-1 colon = test system: DLD-1 colon
U251 CNS = test system: U251 CNS
UACC-62 melanoma = test system: UACC-62 melanoma
KM20L2 colon = test system: KM20L2 colon
OVCAR-4 ovarian = test system: OVCAR-4 ovarian
A549 NSCLC = test system: A549 NSCLC
SF-295 CNS = test system: SF-295 CNS
HOP-92 NSCLC = test system: HOP-92 NSCLC
SNB-19 CNS = test system: SNB-19 CNS
CCRF-CEM leukemia = test system: CCRF-CEM leukemia
ACHN renal = test system: ACHN renal
SK-MEL-28 melanoma = test system: SK-MEL-28 melanoma
NCI-H522 lung = test system: NCI-H522 lung
SK-OV-3 ovarian = test system: SK-OV-3 ovarian
KM12 colon = test system: KM12 colon
786-0 renal = test system: 786-0 renal
SNB-78 CNS = test system: SNB-78 CNS
NCI-H23 lung = test system: NCI-H23 lung
SK-MEL-2 melanoma = test system: SK-MEL-2 melanoma
SK-MEL-5 melanoma = test system: SK-MEL-5 melanoma
HCT-15 colon = test system: HCT-15 colon
M19-MEL melanoma = test system: M19-MEL melanoma
SW-620 colon = test system: SW-620 colon
EKVX NSCLC = test system: EKVX NSCLC
COLO 205 colon = test system: COLO 205 colon
M14 melanoma = test system: M14 melanoma
HT29 colon = test system: HT29 colon
TK-10 renal = test system: TK-10 renal
CAKI-1 renal = test system: CAKI-1 renal
RXF 393 renal = test system: RXF 393 renal
HCC-2998 colon = test system: HCC-2998 colon
OVCAR-8 ovarian = test system: OVCAR-8 ovarian
SR leukemia = test system: SR leukemia
UO-31 renal = test system: UO-31 renal
DMS 114 small cell lung = test system: DMS 114 small cell lung
OVCAR-5 ovarian = test system: OVCAR-5 ovarian
MALME-3M melanoma = test system: MALME-3M melanoma
SF-268 CNS = test system: SF-268 CNS
MOLT-4 leukemia = test system: MOLT-4 leukemia
XF 498 CNS = test system: XF 498 CNS
SF-539 CNS = test system: SF-539 CNS
SN12C renal = test system: SN12C renal
K-562 leukemia = test system: K-562 leukemia
IGROV1 ovarian = test system: IGROV1 ovarian
LXFL 529 NSCLC = test system: LXFL 529 NSCLC
HL-60(TB) leukemia = test system: HL-60(TB) leukemia
SNB-75 CNS = test system: SNB-75 CNS
LOX IMVI melanoma = test system: LOX IMVI melanoma
HOP-62 NSCLC = test system: HOP-62 NSCLC
DMS 273 small cell lung = test system: DMS 273 small cell lung
NCI-H460 lung = test system: NCI-H460 lung
UACC-257 melanoma = test system: UACC-257 melanoma
NCI-H226 lung = test system: NCI-H226 lung
A498 renal = test system: A498 renal
RPMI-8226 leukemia = test system: RPMI-8226 leukemia
HCT-116 colon = test system: HCT-116 colon

Measured: TGI

COc1cccc(/C=C(\NC(C)=O)c2nc3ccc(Cl)cc3[nH]2)c1
not listed: HL-60(TB) leukemia | SNB-75 CNS | LOX IMVI melanoma | HOP-62 NSCLC | DMS 273 small cell lung | NCI-H460 lung | UACC-257 melanoma | NCI-H226 lung | A498 renal | RPMI-8226 leukemia | HCT-116 colon
> 100 µM: all other assays above

COC1=CC(=O)[C@]2(C)[C@H](C1=O)C(C)[C@H]2c1ccc(OC)cc1 (stereo not given in full)
not listed: KM20L2 colon | DMS 114 small cell lung | SN12C renal | HCT-116 colon
> 100 µM: all other assays above

COc1ccc(N2C(Cl)C(=O)C2c2c[nH]c3ccccc23)cc1 (stereo not given)
not listed: DLD-1 colon | ACHN renal | 786-0 renal | SNB-78 CNS | HCT-15 colon | CAKI-1 renal | HCC-2998 colon | LOX IMVI melanoma | DMS 273 small cell lung | NCI-H226 lung | A498 renal
> 100 µM: all other assays above
